Several values for one entry are separate records, joined by “and”; a condition that tells them apart may be missing. Equal entries are not always repeated.
Test: xn = mol fraction of the nth substance listed

CCCOC(=O)c1ccccc1 + CCCCCCCCCCCCCC
101 kPa
Conditions | viscosity [mPa·s]
298.15 K, x2 = 0.0348 | 2.302
298.15 K, x2 = 0.0666 | 2.257
298.15 K, x2 = 0.0955 | 2.215
298.15 K, x2 = 0.1309 | 2.171
298.15 K, x2 = 0.1608 | 2.137
298.15 K, x2 = 0.1965 | 2.099
298.15 K, x2 = 0.2367 | 2.06
298.15 K, x2 = 0.2722 | 2.029
298.15 K, x2 = 0.307 | 2.003
298.15 K, x2 = 0.3527 | 1.974
298.15 K, x2 = 0.401 | 1.948
298.15 K, x2 = 0.4477 | 1.928
298.15 K, x2 = 0.4973 | 1.916
298.15 K, x2 = 0.549 | 1.906
298.15 K, x2 = 0.5955 | 1.905
298.15 K, x2 = 0.6516 | 1.908
298.15 K, x2 = 0.7159 | 1.921
298.15 K, x2 = 0.7647 | 1.934
298.15 K, x2 = 0.8531 | 1.97
308.15 K, x2 = 0.0488 | 1.84
308.15 K, x2 = 0.0735 | 1.808
308.15 K, x2 = 0.1091 | 1.77
308.15 K, x2 = 0.148 | 1.734
308.15 K, x2 = 0.1734 | 1.714
308.15 K, x2 = 0.215 | 1.682
308.15 K, x2 = 0.2514 | 1.659
308.15 K, x2 = 0.2896 | 1.639
308.15 K, x2 = 0.3376 | 1.62
308.15 K, x2 = 0.3703 | 1.608
308.15 K, x2 = 0.4154 | 1.596
308.15 K, x2 = 0.4616 | 1.587
308.15 K, x2 = 0.5232 | 1.58
308.15 K, x2 = 0.572 | 1.58
308.15 K, x2 = 0.6124 | 1.582
308.15 K, x2 = 0.6769 | 1.588
308.15 K, x2 = 0.7367 | 1.601
308.15 K, x2 = 0.8128 | 1.623
308.15 K, x2 = 0.8907 | 1.652
318.15 K, x2 = 0.0558 | 1.521
318.15 K, x2 = 0.0578 | 1.517
318.15 K, x2 = 0.0908 | 1.491
318.15 K, x2 = 0.1258 | 1.464
318.15 K, x2 = 0.159 | 1.442
318.15 K, x2 = 0.1985 | 1.418
318.15 K, x2 = 0.2344 | 1.399
318.15 K, x2 = 0.2777 | 1.379
318.15 K, x2 = 0.3162 | 1.364
318.15 K, x2 = 0.3637 | 1.348
318.15 K, x2 = 0.4065 | 1.337
318.15 K, x2 = 0.4576 | 1.328
318.15 K, x2 = 0.5191 | 1.321
318.15 K, x2 = 0.5622 | 1.319
318.15 K, x2 = 0.6149 | 1.32
318.15 K, x2 = 0.68 | 1.325
318.15 K, x2 = 0.7358 | 1.332
318.15 K, x2 = 0.8096 | 1.347
318.15 K, x2 = 0.9298 | 1.382

CC(C)c1ccccc1 + CCCCCCCCCCCCCCCC
viscosity [mPa·s], 100 kPa
Conditions | x2 = 0.0536 | x2 = 0.1093 | x2 = 0.2207 | x2 = 0.2969 | x2 = 0.4217 | x2 = 0.5376 | x2 = 0.6083 | x2 = 0.7347 | x2 = 0.823 | x2 = 0.8933
298.15 K | 0.834 | 0.921 | 1.117 | 1.249 | 1.525 | 1.815 | 2.002 | 2.356 | 2.602 | 2.783
308.15 K | 0.77 | 0.846 | 1.018 | 1.136 | 1.348 | 1.561 | 1.687 | 1.932 | 2.098 | 2.236
318.15 K | 0.688 | 0.76 | 0.904 | 1.003 | 1.176 | 1.34 | 1.444 | 1.629 | 1.756 | 1.859

CCCCCCCCCCCCCCCCCCCC + CCCCCCCCCCCCCCCC
viscosity [mPa·s], 101.3 kPa
Conditions | x1 = 0.2 | x1 = 0.4 | x1 = 0.5 | x1 = 0.599 | x1 = 0.8
293.2 K | 3.875 | – | – | – | –
303.2 K | 3.045 | 3.481 | 3.77 | 4.065 | –
313.2 K | 2.459 | 2.785 | 3.011 | 3.223 | 3.602

CCCCOC(C)=O + CCCCCCCCCCCCCCCC
298.15 K, 101.3 kPa
Conditions | viscosity [mPa·s]
x1 = 0.0797 | 2.778
x1 = 0.127 | 2.606
x1 = 0.2518 | 2.227
x1 = 0.3552 | 1.944
x1 = 0.4446 | 1.716
x1 = 0.5252 | 1.539
x1 = 0.5544 | 1.484
x1 = 0.594 | 1.39
x1 = 0.7165 | 1.149
x1 = 0.8169 | 0.9655
x1 = 0.8982 | 0.834
x1 = 0.952 | 0.7259

C=COC(C)=O + CCCCCCCCCCO
303.15 K, 101.33 kPa
Conditions | viscosity [mPa·s]
x1 = 0.1013 | 6.774
x1 = 0.1998 | 4.804
x1 = 0.3007 | 3.437
x1 = 0.3991 | 2.488
x1 = 0.5006 | 1.793
x1 = 0.6004 | 1.31
x1 = 0.6957 | 0.952
x1 = 0.8003 | 0.682
x1 = 0.904 | 0.489

CCCN + CCCCCCCCCCO
viscosity [mPa·s], 101.33 kPa
Conditions | x1 = 0.0915 | x1 = 0.1817 | x1 = 0.283 | x1 = 0.3906 | x1 = 0.4858 | x1 = 0.59 | x1 = 0.718 | x1 = 0.8181 | x1 = 0.9058
303.15 K | 7.465 | 6.249 | 5.036 | 3.906 | 3.037 | 2.211 | 1.384 | 0.8865 | 0.5706
313.15 K | 5.86 | 4.82 | 3.89 | 2.973 | 2.284 | 1.654 | 1.051 | 0.7052 | 0.481

C=COC(C)=O + CCCCCCCCO
303.15 K, 101.33 kPa
Conditions | viscosity [mPa·s]
x1 = 0.1001 | 4.448
x1 = 0.2008 | 3.155
x1 = 0.3002 | 2.302
x1 = 0.4017 | 1.705
x1 = 0.4997 | 1.279
x1 = 0.6008 | 0.965
x1 = 0.6993 | 0.743
x1 = 0.7981 | 0.577
x1 = 0.8965 | 0.459

CCCCOC(C)=O + CCCCCCCCO
viscosity [mPa·s], 101 kPa
Conditions | x2 = 0.085 | x2 = 0.1729 | x2 = 0.2638 | x2 = 0.3579 | x2 = 0.4554 | x2 = 0.5564 | x2 = 0.6611 | x2 = 0.7698 | x2 = 0.8827
298.15 K | 0.884 | 1.13 | – | 1.808 | 2.27 | 2.845 | 3.578 | 4.535 | 5.81
303.15 K | 0.813 | 1.03 | 1.298 | 1.623 | 2.017 | 2.505 | 3.119 | 3.918 | 4.98
308.15 K | 0.748 | 0.938 | 1.171 | 1.453 | 1.789 | 2.197 | 2.71 | 3.378 | 4.252
313.15 K | 0.689 | 0.855 | 1.059 | 1.305 | 1.591 | 1.938 | 2.372 | 2.932 | 3.66

CCCN + CCCCCCCCO
viscosity [mPa·s], 101.33 kPa
Conditions | x1 = 0.1005 | x1 = 0.1898 | x1 = 0.3064 | x1 = 0.385 | x1 = 0.4834 | x1 = 0.5835 | x1 = 0.6813 | x1 = 0.7916 | x1 = 0.8908
303.15 K | 4.988 | 4.15 | 3.23 | 2.689 | 2.107 | 1.601 | 1.182 | 0.8056 | 0.5464
313.15 K | 3.651 | 3.052 | 2.37 | 1.976 | 1.563 | 1.203 | 0.9234 | 0.6649 | 0.4703

CCCCCCCC[N+](C)(C)CCOCCO.Cc1cc(Cl)ccc1OCC(=O)[O-] + CCCCCCCC[N+](C)(C)CCOCCO.COc1c(Cl)ccc(Cl)c1C(=O)[O-]
100 kPa, x1 = 0.58
Conditions | viscosity
293.15 K | 12650 mPa·s and 12650 mPa·s
303.15 K | 4260 mPa·s
313.15 K | 1780 mPa·s
323.15 K | 831.5 mPa·s

CN1CCCN(C)C1=O + CCCCCCCCn1cc[n+](C)c1.[Cl-]
308.15 K, 100 kPa
Conditions | viscosity [mPa·s]
x2 = 0.0999 | 7.275
x2 = 0.2997 | 61.15

CCCN + CCCCCCCO
viscosity [mPa·s], 101.33 kPa
Conditions | x1 = 0.0918 | x1 = 0.1876 | x1 = 0.2917 | x1 = 0.3927 | x1 = 0.4818 | x1 = 0.6142 | x1 = 0.7167 | x1 = 0.7997 | x1 = 0.9056
303.15 K | 4.047 | 3.35 | 2.669 | 2.114 | 1.687 | 1.177 | 0.8748 | 0.678 | 0.4813
313.15 K | 3.046 | 2.522 | 2.023 | 1.593 | 1.28 | 0.9105 | 0.6933 | 0.5549 | 0.4105

From the CheMixHub viscosity set
